Data taken from publication PMC6222706, “Evaluation of the Antioxidant and Neuroprotectant Activities of New Asymmetrical 1,3-Diketones” (Molecules : A Journal of Synthetic Chemistry and Natural …, 2018).

assay: ABTS radical scavenging assay; format: biochemical; conditions: 30 min incubation, EtOH, absorbance at 734 nm
Description: ABTS^+ radical was produced by reacting 2,2′-azino-bis-3-ethylbenzthiazoline-6-sulphonic acid (ABTS) 7 mM with K2S2O8 2.45 mM, both reactants dissolved in water, and at the volume ratio of 1:1. The mixture was stored in the dark at room temperature for 16 h. The ABTS^+ solution was diluted to give an absorbance of 0.750 ± 0.025 at 734 nm in EtOH. All the compounds tested were dissolved in EtOH. 150 µL of each compound solution was added to the wells of the 96-well plate, followed by the addition of 50 µL of the ABTS^+ radical solution. Final compound concentrations tested were 0, 5, 10, 20, 50, 100, 150, 200 µM. The absorbance change at 734 nm was recorded after 30 min incubation in the dark, and the percentage of radical scavenging was calculated for each concentration relative to a blank containing no scavenger. The degree of decolorization was calculated as the percentage reduction of absorbance. The ABTS^+ radical scavenging activity was calculated as follows: Percentage ABTS^+ radical scavenging activity = {1 − [As/Ac]} × 100(1) where As is the absorbance of the ABTS^+ radical solution containing samples and Ac the absorbance of the control solution without antioxidant. The percentages of ABTS^+ radical reduced were plotted against compound concentration. Trolox was used as a reference antioxidant. All the assays were carried out three times by quadruplicate for each compound.

Row | SMILES | IC50 [µM]
1 | O=C(/C=C(O)/C=C/c1ccc(O)cc1F)C(F)(F)F [Compound 4b, (3Z,5E)-1,1,1-trifluoro-6-(2-fluoro-4-hydroxyphenyl)-4-hydroxy-hexa-3,5-dien-2-one] | 216 ± 39.5
2 | O=C(/C=C(O)/C=C/c1ccc(F)c(O)c1F)c1ccccc1 [Compound 5a, (2Z,4E)-5-(2,4-difluoro-3-hydroxyphenyl)-3-hydroxy-1-phenylpenta-2,4-dien-1-one] | 275 ± 35.3
3 | O=C(/C=C(O)/C=C/c1ccc(F)c(O)c1F)C(F)(F)F [Compound 5b, (3Z,5E)-6-(2,4-difluoro-3-hydroxyphenyl)-1,1,1-trifluoro-4-hydroxyhexa-3,5-dien-2-one] | 518 ± 94.6
4 | O=C(/C=C(O)/C=C/c1cc(F)c(O)cc1F)c1ccccc1 [Compound 6a, (2Z,4E)-5-(2,5-difluoro-4-hydroxyphenyl)-3-hydroxy-1-phenylpenta-2,4-dien-1-one] | 67.2 ± 2.7
5 | O=C(/C=C(O)/C=C/c1ccc(O)c(F)c1)c1ccccc1 [Compound 3a, (2Z,4E)-5-(3-fluoro-4-hydroxyphenyl)-3-hydroxy-1-phenylpenta-2,4-dien-1-one] | 60.2 ± 2.2
6 | COc1cc(/C=C/C(O)=C/C(=O)c2ccccc2)ccc1F [Compound 2a, (2Z,4E)-5-(4-fluoro-3-methoxyphenyl)-3-hydroxy-1-phenylpenta-2,4-dien-1-one] | > 600

same assay, conditions: Trolox Equivalent Antioxidant Capacity vs 100 µM solution of the substance, from ABTS assay

Row | SMILES | ABTS-TEAC100
7 | O=C(/C=C(O)/C=C/c1ccc(O)cc1F)C(F)(F)F [Compound 4b, (3Z,5E)-1,1,1-trifluoro-6-(2-fluoro-4-hydroxyphenyl)-4-hydroxy-hexa-3,5-dien-2-one] | 0.52
8 | O=C(/C=C(O)/C=C/c1ccc(F)c(O)c1F)c1ccccc1 [Compound 5a, (2Z,4E)-5-(2,4-difluoro-3-hydroxyphenyl)-3-hydroxy-1-phenylpenta-2,4-dien-1-one] | 0.23
9 | O=C(/C=C(O)/C=C/c1ccc(F)c(O)c1F)C(F)(F)F [Compound 5b, (3Z,5E)-6-(2,4-difluoro-3-hydroxyphenyl)-1,1,1-trifluoro-4-hydroxyhexa-3,5-dien-2-one] | 0.32
10 | O=C(/C=C(O)/C=C/c1cc(F)c(O)cc1F)c1ccccc1 [Compound 6a, (2Z,4E)-5-(2,5-difluoro-4-hydroxyphenyl)-3-hydroxy-1-phenylpenta-2,4-dien-1-one] | 0.51
11 | O=C(/C=C(O)/C=C/c1ccc(O)c(F)c1)c1ccccc1 [Compound 3a, (2Z,4E)-5-(3-fluoro-4-hydroxyphenyl)-3-hydroxy-1-phenylpenta-2,4-dien-1-one] | 0.51
12 | COc1cc(/C=C/C(O)=C/C(=O)c2ccccc2)ccc1F [Compound 2a, (2Z,4E)-5-(4-fluoro-3-methoxyphenyl)-3-hydroxy-1-phenylpenta-2,4-dien-1-one] | 0.21

assay: FRAP (Ferric Reducing Antioxidant Power) assay; format: biochemical; conditions: Trolox Equivalent Antioxidant Capacity vs 100 µM solution of the substance, from FRAP assay
Description: The assay was carried out according to the method of Benzie et al. with slight modifications, in a 96-well microplate. FRAP reagent was prepared by mixing 10 mL of 300 mM acetate buffer with 1 mL of 10 mM 2,4,6-tripyridyl-S-triazine (TPTZ) in HCl 40 mM and 1mL of FeCl3·6H2O 20 mM. Firstly, 190 µL of the FRAP reagent were added to all wells of the 96-well plate, followed by the addition to the well of 10 µL of the test compounds dissolved in Ethanol to reach the final concentrations assayed (0, 5, 10, 20, 50, 100, 150, 200 µM). After 30 min incubation in the dark, the absorbance was read at 593 nm. Trolox was used as assay control. Three different assays were carried out by quadruplicate for each compound.

Row | SMILES | FRAP-TEAC100
13 | O=C(/C=C(O)/C=C/c1ccc(O)cc1F)C(F)(F)F [Compound 4b, (3Z,5E)-1,1,1-trifluoro-6-(2-fluoro-4-hydroxyphenyl)-4-hydroxy-hexa-3,5-dien-2-one] | 0.09
14 | O=C(/C=C(O)/C=C/c1ccc(F)c(O)c1F)c1ccccc1 [Compound 5a, (2Z,4E)-5-(2,4-difluoro-3-hydroxyphenyl)-3-hydroxy-1-phenylpenta-2,4-dien-1-one] | 0.05
15 | O=C(/C=C(O)/C=C/c1ccc(F)c(O)c1F)C(F)(F)F [Compound 5b, (3Z,5E)-6-(2,4-difluoro-3-hydroxyphenyl)-1,1,1-trifluoro-4-hydroxyhexa-3,5-dien-2-one] | 0.05
16 | O=C(/C=C(O)/C=C/c1cc(F)c(O)cc1F)c1ccccc1 [Compound 6a, (2Z,4E)-5-(2,5-difluoro-4-hydroxyphenyl)-3-hydroxy-1-phenylpenta-2,4-dien-1-one] | 0.25
17 | O=C(/C=C(O)/C=C/c1ccc(O)c(F)c1)c1ccccc1 [Compound 3a, (2Z,4E)-5-(3-fluoro-4-hydroxyphenyl)-3-hydroxy-1-phenylpenta-2,4-dien-1-one] | 0.33
18 | COc1cc(/C=C/C(O)=C/C(=O)c2ccccc2)ccc1F [Compound 2a, (2Z,4E)-5-(4-fluoro-3-methoxyphenyl)-3-hydroxy-1-phenylpenta-2,4-dien-1-one] | 0.00

same assay, conditions: at 100 µM, 30 min, 593 nm

Row | SMILES | FRAP Assay (%) at 100 µM [%]
19 | O=C(/C=C(O)/C=C/c1ccc(O)cc1F)C(F)(F)F [Compound 4b, (3Z,5E)-1,1,1-trifluoro-6-(2-fluoro-4-hydroxyphenyl)-4-hydroxy-hexa-3,5-dien-2-one] | 4.8
20 | O=C(/C=C(O)/C=C/c1ccc(F)c(O)c1F)c1ccccc1 [Compound 5a, (2Z,4E)-5-(2,4-difluoro-3-hydroxyphenyl)-3-hydroxy-1-phenylpenta-2,4-dien-1-one] | 3.4
21 | O=C(/C=C(O)/C=C/c1ccc(F)c(O)c1F)C(F)(F)F [Compound 5b, (3Z,5E)-6-(2,4-difluoro-3-hydroxyphenyl)-1,1,1-trifluoro-4-hydroxyhexa-3,5-dien-2-one] | 3.0
22 | O=C(/C=C(O)/C=C/c1cc(F)c(O)cc1F)c1ccccc1 [Compound 6a, (2Z,4E)-5-(2,5-difluoro-4-hydroxyphenyl)-3-hydroxy-1-phenylpenta-2,4-dien-1-one] | 15.5
23 | O=C(/C=C(O)/C=C/c1ccc(O)c(F)c1)c1ccccc1 [Compound 3a, (2Z,4E)-5-(3-fluoro-4-hydroxyphenyl)-3-hydroxy-1-phenylpenta-2,4-dien-1-one] | 20.5
24 | COc1cc(/C=C/C(O)=C/C(=O)c2ccccc2)ccc1F [Compound 2a, (2Z,4E)-5-(4-fluoro-3-methoxyphenyl)-3-hydroxy-1-phenylpenta-2,4-dien-1-one] | 0.1

same assay, conditions: at 200 µM, 30 min, 593 nm

Row | SMILES | FRAP Assay (%) at 200 µM [%]
25 | O=C(/C=C(O)/C=C/c1ccc(O)cc1F)C(F)(F)F [Compound 4b, (3Z,5E)-1,1,1-trifluoro-6-(2-fluoro-4-hydroxyphenyl)-4-hydroxy-hexa-3,5-dien-2-one] | 8.5
26 | O=C(/C=C(O)/C=C/c1ccc(F)c(O)c1F)c1ccccc1 [Compound 5a, (2Z,4E)-5-(2,4-difluoro-3-hydroxyphenyl)-3-hydroxy-1-phenylpenta-2,4-dien-1-one] | 5.3
27 | O=C(/C=C(O)/C=C/c1ccc(F)c(O)c1F)C(F)(F)F [Compound 5b, (3Z,5E)-6-(2,4-difluoro-3-hydroxyphenyl)-1,1,1-trifluoro-4-hydroxyhexa-3,5-dien-2-one] | 4.7
28 | O=C(/C=C(O)/C=C/c1cc(F)c(O)cc1F)c1ccccc1 [Compound 6a, (2Z,4E)-5-(2,5-difluoro-4-hydroxyphenyl)-3-hydroxy-1-phenylpenta-2,4-dien-1-one] | 25.2
29 | O=C(/C=C(O)/C=C/c1ccc(O)c(F)c1)c1ccccc1 [Compound 3a, (2Z,4E)-5-(3-fluoro-4-hydroxyphenyl)-3-hydroxy-1-phenylpenta-2,4-dien-1-one] | 31.0
30 | COc1cc(/C=C/C(O)=C/C(=O)c2ccccc2)ccc1F [Compound 2a, (2Z,4E)-5-(4-fluoro-3-methoxyphenyl)-3-hydroxy-1-phenylpenta-2,4-dien-1-one] | 0.7

assay: Cytotoxicity in SH-SY5Y cells (MTT); format: cell-based; conditions: human, SH-SY5Y neuronal cells, concentration reducing cell viability to 50% of control
Description: So, to study the neuroprotectant potential of β-diketones in the SH-SY5Y cell line, we firstly need to determine their cytotoxicity in the same cellular model. […] In addition to that, within each series, the introduction of a second fluorine atom in the left-hand side phenyl ring decreases also the cytotoxicity.
SH-SY5Y cells were seeded into 96-well plates at a density of 5 × 10^3 cells/well and grown in the incubator for 24 h. All compounds tested were dissolved and eventually further diluted in dimethylsulfoxide (DMSO). After overnight incubation, the cells were treated with different test concentrations (5, 10, 20, 50, 100, 150, 200 µM) in a final volume of 200 µL with four replicates each. […] Cell proliferation or viability was measured using the 3-(4,5-dimethylthiazol-2-yl)-2,5-diphenyl tetrazolium bromide (MTT) assay. After 24 h, 20 µL of MTT (5 mg/mL) was added to each well and the plate was incubated at 37 °C in the dark for 2 h. Supernatants were removed and the formazan crystals were solubilized in DMSO (200 µL/well), under 10 min shaking at room temperature. The reduction of MTT was quantified by absorbance at 570 nm Varioskan microplate reader (Thermo Fisher Scientific, Vantaa, Finland). Effects of the test compounds on cell viability were calculated using cells treated with vehicle as control. The data were subjected to linear regression analysis and the regression lines were plotted for the best fit. The IC50 (inhibition of cell viability) concentrations were calculated using the respective dose-response curves.

Row | SMILES | IC50 at 24 h [µM]
31 | O=C(/C=C(O)/C=C/c1ccc(O)cc1F)C(F)(F)F [Compound 4b, (3Z,5E)-1,1,1-trifluoro-6-(2-fluoro-4-hydroxyphenyl)-4-hydroxy-hexa-3,5-dien-2-one] | 138 ± 6.5
32 | O=C(/C=C(O)/C=C/c1ccc(F)c(O)c1F)c1ccccc1 [Compound 5a, (2Z,4E)-5-(2,4-difluoro-3-hydroxyphenyl)-3-hydroxy-1-phenylpenta-2,4-dien-1-one] | 119 ± 8.5
33 | O=C(/C=C(O)/C=C/c1ccc(F)c(O)c1F)C(F)(F)F [Compound 5b, (3Z,5E)-6-(2,4-difluoro-3-hydroxyphenyl)-1,1,1-trifluoro-4-hydroxyhexa-3,5-dien-2-one] | 153 ± 21
34 | O=C(/C=C(O)/C=C/c1cc(F)c(O)cc1F)c1ccccc1 [Compound 6a, (2Z,4E)-5-(2,5-difluoro-4-hydroxyphenyl)-3-hydroxy-1-phenylpenta-2,4-dien-1-one] | 134 ± 6.6
35 | O=C(/C=C(O)/C=C/c1ccc(O)c(F)c1)c1ccccc1 [Compound 3a, (2Z,4E)-5-(3-fluoro-4-hydroxyphenyl)-3-hydroxy-1-phenylpenta-2,4-dien-1-one] | 98.1 ± 8.3
36 | COc1cc(/C=C/C(O)=C/C(=O)c2ccccc2)ccc1F [Compound 2a, (2Z,4E)-5-(4-fluoro-3-methoxyphenyl)-3-hydroxy-1-phenylpenta-2,4-dien-1-one] | 75.7 ± 5.4
